“Also recorded” adds a separate entry of the source.
Columns and labels:
Format in all cases: in vivo, mouse
[1] = tested on: TIMP-1; assay: qRT-PCR of TIMP-1 mRNA in left ventricle after TAC/sham
Experimental: (§1) 11 to 13 week old male C57BL/6 mice were purchased from Charles River (Germany). Mice were housed in individually ventilated pathogen-free cages with free access to water and standard rodent chow. The animals were handled according to the principles of laboratory animal care (NIH publication No. 85-23, revised 1996), and animal procedures were approved by the local committee for animal care.
(§2) The first injection was performed 5 min prior to TAC or sham-operation procedure (described below) and repeated 4, 8, 12, 24, 36, 48 and 60 hrs after surgery. Animals were randomly assigned into two groups, receiving either a tetrasodium salt of the compound of formula 1 (hereinafter “Eritoran tetrasodium”) or placebo. The catheter was flushed with 50 μl 0.9% NaCl before and 100 μl after each injection of 50 μl Eritoran tetrasodium (2.5 mg/ml vehicle; 5 mg/kg bodyweight/application; dosage adopted from Shimamoto et al., Circulation 2006, 114: 1270-1274) or placebo solution.
Treatment groups were separated into two subgroups, undergoing transverse aortic constriction (TAC) or sham operation. […]
(§3) Quantitative real-time PCR analysis was completed. […] RNA was dissolved in 100 μl of RNase-free water, and concentration was determined photometrically (absorbance at 260 nm) before storage at −80° C. […]
(§4) Real-time PCR was performed according to the manufacturer's protocol. […] Each sample was measured in triplicate wells and underwent 40 cycles of amplification on an ABI PRISM® Sequence Detection System (Applied Biosystems). CT values were determined with SDS Software 2.2 (Applied Biosystems) and relative quotients (RQ) were calculated following the ΔΔCT method (RQ target gene/GAPDH).
(§5) Statistics were calculated using Prism 4.05 (GraphPad Software Inc., CA, USA). All values are expressed as mean (M)±SEM. One-way ANOVA with Newman-Keuls post-hoc testing was performed for statistical analysis with the exception of TIMP and cytokine expression which were analysed with Kruskal-Wallis and Dunn's multiple comparison post-hoc testing Impact of TAC-Eritoran on IL-10 expression was analysed with Two-way ANOVA. […]

[2] = tested on: MMP-9; assay: Gelatine zymography of MMP activity in left ventricular tissue after TAC
Experimental: as §1
The first injection was performed 5 min prior to TAC or sham-operation procedure (described below) and repeated 4, 8, 12, 24, 36, 48 and 60 hrs after surgery. Animals were randomly assigned into two groups, receiving either a tetrasodium salt of the compound of formula 1 (hereinafter “Eritoran tetrasodium”) or placebo. The catheter was flushed with 50 μl 0.9% NaCl before and 100 μl after each injection of 50 μl Eritoran tetrasodium (2.5 mg/ml vehicle; 5 mg/kg bodyweight/application; dosage adopted from Shimamoto et al., Circulation 2006, 114: 1270-1274) or placebo solution. […]
For zymographic measurement of MMP activity, protein isolates from left ventricular tissue (60 μg protein content, isolated with NE-PER protein isolation kit; Pierce®) were mixed with 2× Tris-Glycine SDS sample buffer, and loaded on precast zymogram gels (SDS-PAGE; BioRad, Germany) containing […]. […] Areas of protease activity were detected as transparent bands against blue background. […]

[3] = tested on: IL-6; assay: qRT-PCR of IL-6 mRNA in left ventricle after TAC/sham
Experimental: as §1
The first injection was performed 5 min prior to TAC or sham-operation procedure (described below) and repeated 4, 8, 12, 24, 36, 48 and 60 hrs after surgery. […]
as §3, §4
(§6) Statistics were calculated using Prism 4.05 (GraphPad Software Inc., CA, USA). All values are expressed as mean (M)±SEM. […]

[4] = tested on: TLR4; assay: qRT-PCR of TLR4 mRNA in left ventricle after TAC/sham
[5] = tested on: IL-6; assay: ELISA of IL-6 protein in myocardial tissue after TAC/sham
Experimental: as §1
(§7) The first injection was performed 5 min prior to TAC or sham-operation procedure (described below) and repeated 4, 8, 12, 24, 36, 48 and 60 hrs after surgery. Animals were randomly assigned into two groups, receiving either a tetrasodium salt of the compound of formula 1 (hereinafter “Eritoran tetrasodium”) or placebo. […]
(§8) For ELISA assays, proteins from snap-frozen myocardial tissue were isolated and cytosolic and nuclear proteins separated according to the manufacturer's protocol (NE-PER®, Nuclear and Cytoplasmic Extraction Kit, Pierce®, Thermo Scientific, IL, USA). Myocardial protein levels in the cytoplasmic fraction were detected with Quantikine mouse IL-1β as well as IL-6 ELISA (R&D Systems, […], USA) as described in the manufacturer's protocol. […] Protein concentration was determined by B CA protein assay (Pierce®).
as §6

[6] = tested on: IL-10; assay: qRT-PCR of IL-10 mRNA in left ventricle after TAC/sham; conditions: for IL-10 mRNA level: three days after surgery, qRT-PCR, M ± SEM
Experimental: as §1, §2
Treatment groups were separated into two subgroups, undergoing transverse aortic constriction (TAC) or sham operation. Surgery for TAC was achieved as published previously (see, e.g., Baumgarten et al., Circulation 2002, 105: 2192-2197 and Baumgarten et al., Basic Res Cardiol 2006, 101: 427-435). Mice were intubated in a supine position and mechanical ventilation was initiated (MiniVent 845, Hugo Sachs Elektronik, Germany). A left parasternal incision was performed. A suture was passed underneath the aorta and tied down on a 27 Gauge needle, which was immediately removed and allowed to achieve a standardised and previously validated decreased diameter of the aorta. For sham operation the suture was passed underneath the aorta without ligation. […]
as §3, §4, §5

[7] = tested on: IL-1β; assay: ELISA of IL-1β protein in myocardial tissue after TAC/sham
Experimental: as §1, §7, §8, §6

[8] = Example 1, TAC, three days after surgery
[9] = Example 2, TAC treated vs TAC-placebo

Compound	TIMP-1 mRNA expression ([1]; Example 1, TAC, three days after surgery, RQ target gene/GAPDH)	TIMP-1 mRNA expression ([1]; Example 1, sham operation, three days after surgery, RQ target gene/GAPDH)	MMP (MMP-9) zymographic activity [2, 8]	IL-6 mRNA level ([3]; Example 1, TAC, three days after surgery, qRT-PCR, M ± SEM)	TLR4 mRNA expression [4, 8]	TLR4 mRNA expression ([4]; Example 1, sham operation, three days after surgery)	IL-6 protein expression (ELISA) [5, 8]	IL-10 mRNA level ([6]; Example 1, TAC)	elevation of IL-10 mRNA ([6]; Example 1, in sham and TAC groups, p<0.05, Two-way Anova)	IL-10 mRNA level ([6]; Example 1, sham operation)	IL-1β protein expression (ELISA) [7, 8]	TIMP-1 mRNA expression [1, 9]	MMP-9 zymographic activity [2, 9]	IL-6 mRNA expression [3, 9]	TLR4 mRNA expression [4, 9]	IL-6 protein expression ([5]; Example 2, TAC treated group)	IL-10 mRNA expression [6, 9]	IL-1β protein expression ([7]; Example 2, TAC treated group)
CCCCCC/C=C\CCCCCCCCCC(=O)N[C@H]1[C@H](OC[C@H]2O[C@H](OP(=O)([O-])[O-])[C@H](NC(=O)CC(=O)CCCCCCCCCCC)[C@@H](OCCCCCCCCCC)[C@@H]2O)O[C@H](COC)[C@@H](OP(=O)([O-])[O-])[C@@H]1OCC[C@@H](CCCCCCC)OC.[Na+].[Na+].[Na+].[Na+] [Eritoran tetrasodium]	23.20±14.52	1.16±0.40	attenuated; also recorded: reduced zymographic activity of MMP-9	16.60 ± 7.55	no significant effects	had no effects on the mRNA expression	did not display significant increases; also recorded: lower levels of pro-inflammatory cytokines compared to TAC placebo hearts (not significant)	4.71 ± 1.22 b	three to four fold elevation	3.81 ± 1.69 b	did not display significant increases; also recorded: lower levels of pro-inflammatory cytokines compared to TAC placebo hearts (not significant)							
CCCCCC/C=C\CCCCCCCCCC(=O)N[C@H]1[C@H](OC[C@H]2O[C@H](OP(=O)(O)O)[C@H](NC(=O)CC(=O)CCCCCCCCCCC)[C@@H](OCCCCCCCCCC)[C@@H]2O)O[C@H](COC)[C@@H](OP(=O)(O)O)[C@@H]1OCC[C@@H](CCCCCCC)OC [compound of formula (I), α-D-Glucopyranose, 3-O-decyl-2-deoxy-6-O-[2-deoxy-3-O-[(3R)-3-methoxydecyl)-6-O-methyl-2-[[(−11Z)-1-oxo-11-octadecenyl)amino]-4-O-phosphono-β-D-glucopyranosyl]-2-[(1,3-dioxotetradecyl)amino]-1-(dihydrogen phosphate)]												higher	higher in the TAC-placebo animals compared to the TAC groups treated	lower	significantly reduced	reduced	increased	reduced
